Legend:
[1] = biological target: T1, SIRT1 (Homo sapiens, UniProt Q96EB6); experiment: Trp mass spectrometry assay of SIRT1 activity; format: biochemical; conditions: Trp assay; for Trp EC1.5 (μM): concentration giving 150% activation of SIRT1; for Emax: percent maximum fold activation, read-out: Trp % Fold Act
T1 sequence (Q96EB6 1-747): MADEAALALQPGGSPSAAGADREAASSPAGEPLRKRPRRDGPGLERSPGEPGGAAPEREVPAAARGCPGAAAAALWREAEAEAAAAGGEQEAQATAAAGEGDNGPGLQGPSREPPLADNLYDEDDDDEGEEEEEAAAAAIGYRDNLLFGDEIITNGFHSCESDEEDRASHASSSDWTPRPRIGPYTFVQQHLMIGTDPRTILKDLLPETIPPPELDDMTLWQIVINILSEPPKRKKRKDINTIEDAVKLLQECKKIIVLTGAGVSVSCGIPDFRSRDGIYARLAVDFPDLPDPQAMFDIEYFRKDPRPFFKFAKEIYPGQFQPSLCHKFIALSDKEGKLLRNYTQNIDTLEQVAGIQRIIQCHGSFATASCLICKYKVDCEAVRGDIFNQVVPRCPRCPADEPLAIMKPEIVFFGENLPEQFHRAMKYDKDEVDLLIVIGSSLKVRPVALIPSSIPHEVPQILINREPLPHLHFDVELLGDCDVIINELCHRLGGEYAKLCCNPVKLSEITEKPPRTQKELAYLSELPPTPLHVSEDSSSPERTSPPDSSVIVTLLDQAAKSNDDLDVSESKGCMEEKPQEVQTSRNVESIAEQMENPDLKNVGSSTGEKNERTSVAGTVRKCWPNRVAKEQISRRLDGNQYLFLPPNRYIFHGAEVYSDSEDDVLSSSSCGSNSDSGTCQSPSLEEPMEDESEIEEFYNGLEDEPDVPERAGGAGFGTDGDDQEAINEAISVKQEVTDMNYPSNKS
How it was run: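 His-tagged SIRT1 expressed in E. coli BL21(DE3), 10 nM, incubated 25 min at 25° C. with 0.5 μM Ac-RHKK(Ac)W-NH2 peptide and 120 μM βNAD+ in 50 mM HEPES pH 7.5, […], 1 mM DTT, 0.05% BSA; formic acid stop. OAADPR or deacetylated peptide measured by mass spectrometry; EC1.5 and percent maximum activation versus DMSO control.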

[2] = biological target: T1, SIRT1; experiment: TAMRA based mass spectrometry assay of SIRT1 activity; format: biochemical; conditions: TAMRA assay; for TAMRA EC1.5 (μM): concentration giving 150% activation of SIRT1; for Emax: percent maximum fold activation, read-out: TAMRA % Fold Act
How it was run: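 Recombinant N-terminal His-tagged human SIRT1 (10 nM, E. coli) incubated 25 min at 25 °C with 0.5 μM 5TMR-labelled p53-derived acetyl-peptide and 120 μM βNAD+ in Tris-acetate pH 8 buffer with DTT and 0.05% BSA, compound at varying concentrations. Stopped with formic acid; deacetylated peptide or OAADPR measured by mass spectrometry relative to DMSO controls.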

Row | SMILES | Trp EC1.5 (μM) [1] | Emax [1] [%] | TAMRA EC1.5 (μM) [2] | Emax [2] [%]
1 | O=C(Nc1ccc(CN2CCCC2)cn1)c1cnc2ccc(-c3ccccc3C(F)(F)F)nn12 [Compound 248] | B (EC1.5 1-25 μM) | < 350 | B (EC1.5 1-25 μM) | ≥ 350
2 | O=C(Nc1cnn2ccc(-c3ccccc3C(F)(F)F)nc12)c1ccccn1 [Compound 249] | B (EC1.5 1-25 μM) | < 350 | A (EC1.5<1 μM) | ≥ 350
3 | O=C(Nc1cnn2ccc(-c3ccccc3C(F)(F)F)nc12)c1ccncc1 [Compound 251] | C (EC1.5>25 μM) | < 350 | C (EC1.5>25 μM) | < 350
4 | O=C(Nc1cnn2ccc(-c3ccccc3C(F)(F)F)nc12)c1ccncn1 [Compound 254] | C (EC1.5>25 μM) | < 350 | B (EC1.5 1-25 μM) | ≥ 350
5 | O=C(Nc1cnn2ccc(-c3ccccc3C(F)(F)F)nc12)c1cccc(CN2CCOCC2)n1 [Compound 255] | B (EC1.5 1-25 μM) | < 350 | A (EC1.5<1 μM) | ≥ 350
6 | Cc1cc(NC(=O)c2cnc3ccc(-c4ccccc4F)nn23)cc(C)n1 [Compound 257] | B (EC1.5 1-25 μM) | < 350 | A (EC1.5<1 μM) | < 350
7 | Cc1cc(NC(=O)c2cnc3ccc(-c4ccccc4Cl)nn23)cc(C)n1 [Compound 260] | B (EC1.5 1-25 μM) | < 350 | A (EC1.5<1 μM) | ≥ 350
8 | COc1cccc(NC(=O)c2cnc3ccc(-c4ccccc4Cl)nn23)n1 [Compound 261] | A (EC1.5<1 μM) | < 350 | A (EC1.5<1 μM) | < 350
9 | O=C(Nc1ccc(OCC(O)CO)nc1)c1cnc2ccc(-c3ccccc3C(F)(F)F)nn12 (centres unmarked) [Compound 263] | B (EC1.5 1-25 μM) | < 350 | B (EC1.5 1-25 μM) | ≥ 350
10 | O=C(Nc1ncccn1)c1cnn2ccc(-c3ccccc3C(F)(F)F)nc12 [Compound 266, N-(pyrimidin-2-yl)-5-(2-(trifluoromethyl)phenyl)pyrazolo[1,5-a]pyrimidine-3-carboxamide] | B (EC1.5 1-25 μM) | < 350 | B (EC1.5 1-25 μM) | ≥ 350
11 | O=C(Nc1cnccn1)c1cnn2ccc(-c3ccccc3C(F)(F)F)nc12 [Compound 267] | B (EC1.5 1-25 μM) | < 350 | A (EC1.5<1 μM) | ≥ 350
12 | O=C(Nc1cccc(CN2CCOCC2)n1)c1cnn2ccc(-c3ccccc3C(F)(F)F)nc12 [Compound 269] | B (EC1.5 1-25 μM) | ≥ 350 | A (EC1.5<1 μM) | ≥ 350
13 | CC(C)c1csc(C(=O)Nc2cnc3ccc(-c4ccccc4C(F)(F)F)nn23)n1 [Compound 272] | B (EC1.5 1-25 μM) | < 350 | A (EC1.5<1 μM) | ≥ 350
14 | Cc1nc(C(=O)Nc2cnc3ccc(-c4ccccc4C(F)(F)F)nn23)cs1 [Compound 273] | B (EC1.5 1-25 μM) | ≥ 350 | A (EC1.5<1 μM) | ≥ 350
15 | Cc1cc(C(=O)Nc2cnc3ccc(-c4ccccc4C(F)(F)F)nn23)nc(C)n1 [Compound 275] | B (EC1.5 1-25 μM) | < 350 | A (EC1.5<1 μM) | ≥ 350
16 | O=C(Nc1cnc2ccc(-c3ccccc3F)nn12)c1ccccn1 [Compound 279] | C (EC1.5>25 μM) | < 350 | B (EC1.5 1-25 μM) | < 350
17 | O=C(Nc1cnc2ccc(-c3ccccc3F)nn12)c1ccncn1 [Compound 281] | C (EC1.5>25 μM) | < 350 | C (EC1.5>25 μM) | < 350
18 | O=C(Nc1ccnc(OCC(O)CO)c1)c1cnc2ccc(-c3ccccc3F)nn12 (centres unmarked) [Compound 284] | C (EC1.5>25 μM) | < 350 | C (EC1.5>25 μM) | < 350

Row | SMILES | Trp EC1.5 (μM) [1] | Emax [1] [%] | TAMRA EC1.5 (μM) [2] | Emax [2] [%]
19 | Cc1cc(OCC(O)CO)nc(NC(=O)c2cnc3ccc(-c4ccccc4Cl)nn23)n1 (centres unmarked) [Compound 285] | B (EC1.5 1-25 μM) | < 350 | B (EC1.5 1-25 μM) | < 350
20 | O=C(Nc1cnc2ccc(-c3ccccc3Cl)nn12)c1ccccn1 [Compound 287] | C (EC1.5>25 μM) | < 350 | A (EC1.5<1 μM) | ≥ 350
21 | O=C(Nc1cnc2ccc(-c3ccccc3Cl)nn12)c1ncccn1 [Compound 290] | C (EC1.5>25 μM) | < 350 | B (EC1.5 1-25 μM) | ≥ 350
22 | O=C(Nc1cnc2ccc(-c3ccccc3Cl)nn12)c1cscn1 [Compound 291] | C (EC1.5>25 μM) | < 350 | B (EC1.5 1-25 μM) | ≥ 350
23 | Cc1nc(C(=O)Nc2cnc3ccc(-c4ccccc4Cl)nn23)c(C)s1 [Compound 293] | C (EC1.5>25 μM) | < 350 | A (EC1.5<1 μM) | ≥ 350
24 | O=C(Nc1ccnc(OCC(F)(F)F)c1)c1cnc2ccc(-c3ccccc3C(F)(F)F)nn12 [Compound 296] | B (EC1.5 1-25 μM) | < 350 | B (EC1.5 1-25 μM) | < 350
25 | O=C(Nc1cnc(OCC(O)CO)cn1)c1cnc2ccc(-c3ccccc3C(F)(F)F)nn12 (centres unmarked) [Compound 297] | B (EC1.5 1-25 μM) | < 350 | A (EC1.5<1 μM) | ≥ 350
26 | O=C(Nc1cnc2ccc(-c3ccccc3F)nn12)c1nccs1 [Compound 303] | C (EC1.5>25 μM) | < 350 | B (EC1.5 1-25 μM) | < 350
27 | O=C(Nc1cnc2ccc(-c3ccccc3F)nn12)c1cccc(OCC(O)CO)n1 (centres unmarked) [Compound 305] | A (EC1.5<1 μM) | < 350 | B (EC1.5 1-25 μM) | < 350
28 | O=C(Nc1cnc2ccc(-c3ccccc3Cl)nn12)c1cccc(N2CCC2)n1 [Compound 308] | A (EC1.5<1 μM) | < 350 | A (EC1.5<1 μM) | ≥ 350
29 | O=C(Nc1cnc2ccc(-c3ccccc3Cl)nn12)c1cccc(OCC(O)CO)n1 (centres unmarked) [Compound 309] | A (EC1.5<1 μM) | < 350 | A (EC1.5<1 μM) | ≥ 350
30 | O=C(Nc1nccc(OCC(F)(F)F)n1)c1cnc2ccc(-c3ccccc3C(F)(F)F)nn12 [Compound 311] | A (EC1.5<1 μM) | ≥ 350 | A (EC1.5<1 μM) | ≥ 350
31 | O=C(Nc1cnc2ccc(-c3ccccc3OC(F)(F)F)nn12)c1ncccn1 [Compound 315] | B (EC1.5 1-25 μM) | ≥ 350 | A (EC1.5<1 μM) | ≥ 350
32 | Cc1nc(C(=O)Nc2cnc3ccc(-c4ccccc4OC(F)(F)F)nn23)cs1 [Compound 317] | C (EC1.5>25 μM) | < 350 | A (EC1.5<1 μM) | ≥ 350
33 | Cc1cnc(C(=O)Nc2cnc3ccc(-c4ccccc4OC(F)(F)F)nn23)s1 [Compound 320] | B (EC1.5 1-25 μM) | < 350 | A (EC1.5<1 μM) | ≥ 350
34 | O=C(Nc1cnc2ccc(-c3ccccc3OC(F)(F)F)nn12)c1cccc(N2CCOCC2)n1 [Compound 321] | A (EC1.5<1 μM) | ≥ 350 | A (EC1.5<1 μM) | ≥ 350
35 | O=C(Nc1cnc2ccc(-c3ccccc3OC(F)(F)F)nn12)c1cccc(OCC(O)CO)n1 (centres unmarked) [Compound 323] | A (EC1.5<1 μM) | ≥ 350 | A (EC1.5<1 μM) | ≥ 350

From patent US9957271B2, “Substituted bicyclic aza-heterocycles and analogues as sirtuin modulators” (GlaxoSmithKline, LLC, priority 2012, dated 2018)
